Assay results: patent US9242929B2, “Compounds as diacylglycerol acyltransferase inhibitors” (GlaxoSmithKline Intellectual Property (No.2) Limited, priority 2011, dated 2016)
pIC50: −log10 of the molar value.

These compounds were tested against T1, Human DGAT1 (Homo sapiens, UniProt O75907) (assay: human DGAT1 fluorescence (CPM) assay, inhibition of CoA product formation). Conditions: human DGAT1 fluorescene (CPM) assay; microsomes from Sf9 insect cells; read-out: hDGAT IC50.
T1 construct: made in house; host or cells: Sf9 insect cells (baculovirus), microsomes
T1 sequence (O75907 1-488): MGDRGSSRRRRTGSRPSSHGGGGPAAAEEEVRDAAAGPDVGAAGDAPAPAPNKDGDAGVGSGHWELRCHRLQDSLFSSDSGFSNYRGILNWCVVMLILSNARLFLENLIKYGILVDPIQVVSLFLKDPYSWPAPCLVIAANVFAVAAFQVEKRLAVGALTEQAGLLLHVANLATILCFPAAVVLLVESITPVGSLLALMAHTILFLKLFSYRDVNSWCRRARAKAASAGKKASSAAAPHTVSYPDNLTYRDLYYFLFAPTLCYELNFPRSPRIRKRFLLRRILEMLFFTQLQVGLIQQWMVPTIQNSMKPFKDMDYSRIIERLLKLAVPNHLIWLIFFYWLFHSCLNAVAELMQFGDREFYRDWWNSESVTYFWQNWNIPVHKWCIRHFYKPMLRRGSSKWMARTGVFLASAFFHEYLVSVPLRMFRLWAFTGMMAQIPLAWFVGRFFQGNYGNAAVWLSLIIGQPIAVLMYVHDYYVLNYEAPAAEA
Format: biochemical
Experimental: Human DGAT1 was expressed in Sf9 insect cells using a baculovirus expression system. Microsomes were prepared and used as enzyme for in vitro inhibition testing in either of two formats measuring production of coenzyme A or tridecanoylglycerol product, respectively. All steps were performed at 21-23° C. All data for DGAT1 inhibition by test compounds were collected under conditions where product formation was linear with reaction time.
An equal volume (10 uL) of 3× enzyme in buffer was added and the components incubated for 30 minutes pre-reaction incubation to allow enzyme and test compounds to attain binding equilibrium. […] Some assays were performed with inclusion of didecanoylglycerol in the pre-reaction incubation of test compound and enzyme. DGAT reactions (30 uL) were initiated upon addition of 10 uL of 3× substrate solution. Final reaction conditions consisted of 20 mM HEPES pH 7.5, 2 mM MgCl2, 1 mM CHAPS, 50 uM didecanoylglycerol, 3 uM decanoyl-CoA, 1 ug/mL microsomal protein, and 1% DMSO. Following a 60 minute reaction incubation, reactions were stopped and CoA product derivatized with 30 uL of buffer containing 10 uM {4-[4-(4-amino-7,7-dimethyl-7H-pyrimido[4,5-b][1,4]oxazin-6-yl)phenyl]cyclohexyl}acetic acid and 50 uM 7-diethylamino-3-(4′-maleimidylphenyl)-4-methylcoumarin (CPM). […] IC50s were fitted using GraphPad Prism to a sigmoidal dose response.

pIC50	Structure (SMILES)
6.95	CC(C)(C(=O)O)C1CCc2cc(-c3ccc(NC(=O)Nc4cccc(C(F)(F)F)c4)cc3)ccc2C1=O (stereo not drawn) [Example 76, 2-methyl-2-{1-oxo-6-[4-({[3-(trifluoromethyl)phenyl]carbamoyl}amino)phenyl]-1,2,3,4-tetrahydronaphthalen-2-yl}propanoic acid]
8.57	O=C(O)CC1(CC(F)(F)F)CCc2cc(-c3cnc(NC(=O)NC4CCCCC4)cn3)ccc2C1=O (single isomer, unassigned) [Example 216, 2-(6-(5-(3-cyclohexylureido)pyrazin-2-yl)-1-oxo-2-(2,2,2-trifluoroethyl)-1,2,3,4-tetrahydronaphthalen-2-yl)acetic acid]
7.92	CC1(CC(=O)O)CCc2cc(-c3ccc(NC(=O)Nc4cccc(Cl)c4)c(F)c3)ccc2C1=O (stereo not drawn) [Example 90]
